Assay results from patent US20080260659A1, “Compositions” (GIVAUDAN SA, priority 2005, published 2008).

Assays:
Type in all cases: cell-based
[1] = system: Aspergillus niger ATCC 16404 spores; assay: Sporicidal effect of test compounds in water; details: 0.1% test compound, 7 days
Procedure: Aspergillus niger ATCC 16404 spores are added to water to obtain a density of 3×10^5 spores 1 ml. In order to prepare the spores, the test strain is grown for 5 days on potato dextrose agar at room temperature. The spores are harvested with a solution containing 0.1% Tween 80, peptone 0.1% and NaCl 0.85% and the spore concentration is adjusted to the density indicated above.
Test compounds are dissolved in dipropyleneglycol to a concentration of 20%.
These stock solutions are added to 10 ml aliquots of the spore suspension to obtain a final concentration of the test compounds of 0.1%. The sporicidal effect is shown by a reduction of spore counts after 7 days.
The reduction factor is determined as follows. Aliquots of the above prepared suspension of microorganisms (here: spore suspension prepared as described above) are plated on a suitable agar medium (see above) and the developing colonies are counted both for samples with test compound and for a negative probe (water). The count of the negative control is divided by the count of the test compound and thereby the reduction factor is determined. A negative control (water) accordingly has a reduction factor of 1 (no effect on the microorganism).

[2] = system: Aspergillus niger ATCC 16404 spores; assay: Sporicidal effect in a cosmetic cream; details: cosmetic cream pH 5,5; 0.1% 4-hydroxybenzaldehyde, no parabens
Procedure: (§1) A cosmetic cream (pH 5,5) for application to the human skin is formulated as follows (in % w/w): […]
(§2) Glyceryl-monostearate, Sweet almond oil, Cetyl-stearyl-alcohol and Glyceryl dilaurate are melted at 80° C. Xanthan gum is dispersed into glycerine. Arginine is dissolved in water and heated to 75° C. The Xanthan gum—glycerin suspension is added to the heated water phase, the heated oil phase is added and the suspension is stirred at 300 rpm for 10 min whilst being cooled down slowly. Finally, a homogeneous emulsion is made with a high speed homogenizer at 5000 rpm.
Test samples of cream contain different amounts of preservatives and/or preservative enhancer. The preservative and preservative enhancer is added to an aliquot of 10 g of the cream in 50 ml tubes in a concentration as shown in the table below. After addition of the preservative/preservative enhancer, the cream is thoroughly mixed to achieve a homogeneous distribution. […]
After regular test intervals, samples of 1 g cream are removed and added to 20 ml of a neutralizer solution containing 0.2% lecithin, 2% Tween 80 and 0.5% NaCl. […] After 48 h to 72 h the number of surviving colony forming units (and therefore surviving spores) are counted.
(§3) The count of the negative control is divided by the count of the probe and thereby the reduction factor is determined. […]

[3] = system: Staphylococcus aureus (DSMZ 799) and Pseudomonas aeruginosa (ATCC 15442); assay: Bactericidal effect in a cosmetic cream (mixed inoculum 1:1); details: cosmetic cream pH 5,5; 0.1% 4-hydroxybenzaldehyde, no parabens
Procedure: as §1, §2
Test samples of cream contain different amounts of preservatives and/or preservative enhancer. The preservative and preservative enhancer is added to an aliquot of 10 g of the cream in 50 ml tubes in a concentration as shown in the table below. After addition of the preservative/preservative enhancer, the cream is thoroughly mixed to achieve a homogeneous distribution.
After 1-3 days of equilibration of the cream (storage at room temperature to achieve a homogenous partitioning of compounds between oil and water phase), […]
Aliquots of these suspended and diluted samples are plated on tryptic soy agar supplemented with 0.5% Tween 80 and then incubated for 24 h at 37° C. Surviving bacteria are counted.
as §3

Row | SMILES | Sporicidal effect / reduction of spore counts [1] | reduction factor 7 d fungal spores [2] | reduction factor 24 h bacteria [3]
1 | COc1ccc(C=O)cc1 [4-methoxy-benzaldehyde] | No significant reduction of spore counts | – | –
2 | CC(CC=O)CCc1ccccc1 (stereo not drawn) [Mefranal, 3-methyl-5-phenylpentanal, reference compound] | significant sporicidal effect | – | –
3 | C=CCCCCCCCCO [9-decenol, reference compound] | significant sporicidal effect | – | –
4 | O=Cc1ccc(O)cc1 [4-hydroxybenzaldehyde] | No significant reduction of spore counts | 1 | 1
